Test system: NCI H82 lung carcinoma cell line tumor xenografts
Assay: In vivo tumor xenograft model
Conditions: female nude mice, 12 days, monotherapy
Experimental: To characterize the functional effects of anti-angiogenic peptides in mouse models, tumor xenografts were generated in female nude mice using the NCI H82 lung carcinoma cell line. This cell line was chosen because its aggressiveness results in rapid tumor growth. Three peptides, a collagen derived, a CXC chemokine derived and a TSP1 containing protein derived peptide were administered once a day, intraperitoneally (i.p.), at doses 10 and 20 mg/kg/day, in a 200 microliter solution injection as individual agents and as a combination. The CXC protein GRO-α/CXCL1 derived peptide (human sequence: […] (SEQ ID NO: 2445); mouse sequence: […] (SEQ ID NO: 2441)), the TSP1 repeat-containing protein WISP-1 derived peptide (human sequence: GPWEPCSVTCSKGTRTRRR (SEQ ID NO: 2444); mouse sequence: GPWGPCSVTCSKGTQIRQR (SEQ ID NO: 2440)), and the type IV collagen alpha5 fibril derived peptide (human sequence: […] (SEQ ID NO: 2442) is the same as mouse sequence: […] (SEQ ID NO: 2443)). An equivalent volume of PBS was injected as control. The injections were repeated for 12 days.
A population of 10^6 cells were washed twice in PBS and gently resuspended to generate a single cell suspension. The cells were mixed with Matrigel (BD Biosciences) in a final 60% cell solution. Subsequently, the cells were injected into the flank area of immunosuppressed nude mice in a total volume of 100 μl. Following growth incubation of 5 to 6 days, the tumor size volume was calculated by measurements of tumor dimensions with calipers. Tumor growth was monitored to an initial average size of 100 mm^3, which developed within 6 days after inoculation. Peptides were administered once a day, intraperitoneally (i.p.), in doses of 10 mg/kg and 20 mg/kg. In the case of testing a combination each peptide was injected in a two day cycle of a different peptide per day. Equivalent volume of PBS solution was injected as control. The injections were continued for up to […]. A total of six animals per group were used for the experiments per peptide per concentration.

| Sequence | development of tumors (tumor volume) (10 mg/kg/day i.p. once a day) | development of tumors (tumor volume) (20 mg/kg/day i.p. once a day) |
| --- | --- | --- |
| GPWEPCSVTCSKGTRTRRR | suppressed the development of tumors | suppressed the development of tumors |
| LRRFSTMPFMFCNINNVCNF | suppressed the development of tumors | suppressed the development of tumors |
| NGRKACLNPASPIVKKIIEKMLNS [CXC protein GRO-α/CXCL1 derived peptide] | suppressed the development of tumors | suppressed the development of tumors |
